Source: patent publication US7794995B2, “Purified PKB Ser 473 kinase and uses thereof” (priority 2002, dated 2010)
Entries after “also recorded” stand apart in the source; their conditions may differ.

Key:
PKB Ser473 kinase [1] = test: Ser473 kinase activity (FSY/FAY peptide assay) in subcellular fractions of treated serum-starved HEK293 cells; format: cell-based, human; details: 0.1 microM insulin, pervanadate 0.1 mM, 10 mins, LY294002 50 microM, 30 mins, versus basal
Description: HEK 293 cells transiently transfected with the PKB constructs were serum starved, stimulated or not with 0.1 mM pervanadate for 10 min at 37° C., and subcellular fractions were generated. Briefly, HEK 293 cells were washed once in ice-cold phosphate-buffered saline, and scraped in ice-cold fractionation buffer containing 20 mM HEPES-NaOH, pH 7.4, 250 mM sucrose, phosphatase inhibitors (10 mM sodium fluoride, 1 mM sodium pyrophosphate, 0.1 mM sodium orthovanadate, 2 μM microcystin LR [Alexis]), and protease inhibitors (1 mM PMSF and 1 mM benzamidine). After homogenization either by 10 passes through a 26-gauge needle, or by using a Kinematica homogenizer (10 strokes on speed 2 followed by 30 strokes on speed 10), subcellular fractions were prepared as previously described (Hill and Hemmings, 2002, Methods Enzymol 345: 448-463). The plasma membrane pellets were resuspended in 50 mM Tris-HCl (pH7.4) containing protease and phosphatase inhibitors as described above. Protein concentration of the subcellular fractions was determined by the Bradford method (Bio-Rad), using bovine serum albumin as standard. […]
Next, it was examined if membrane-associated Ser473 kinase activity was dependent on PI3-kinase signalling. […] PM fractions were assayed for Ser473 kinase activity, and also analyzed by immunoblotting for phospho-PKB and total PKB.

[2] = system: PKB phosphorylation on Thr308 and Ser473; test: Immunoblotting of plasma membrane fractions for phospho-PKB and total PKB after cell treatment; format: cell-based, human; details: serum-starved HEK293 cells, immunoblot; for PKB phosphorylation on Thr308 and Ser473: 0.1 microM insulin, pervanadate 0.1 mM, 10 mins
Description: The presence of PKB in each fraction was determined by immunoblotting with an anti-HA antibody (12CA5). In addition, the phosphorylation status of PKB in each of the fractions was assessed by immunoblotting with phospho-specific PKB antibodies after immunoprecipitation with the HA antibody. Briefly, following SDS-PAGE, proteins were transferred onto Immobilon-P membranes (Millipore). Non-specific signals were blocked by incubating the membrane in TBST buffer (50 mM Tris-HCl, pH 7.4, 150 mM NaCl, 0.1% Tween-20) containing 5% skim milk for 1 hour at room temperature. Incubation with antibodies was performed in TBST for phospho-specific antibodies, TBST containing 1% skim milk for polyclonal antibodies and TBST containing 5% skim milk for monoclonal antibodies, at 4° C. overnight. Antibodies specific for PKB phosphorylated on Thr308 are commercially available (Cell Signalling Technologies). Antibodies specific for PKB phosphorylated on Ser473 was produced and purified as previously described (Hill and Hemmings, 2002, Methods Enzymol 345: 448-463). Pan-PKB antibody has been previously described (Jones et al., 1991, Proc Natl Acad Sci USA 88: 4171-4175).
Next, it was examined if membrane-associated Ser473 kinase activity was dependent on PI3-kinase signalling. Serum-starved HEK293 cells were treated with 0.1 microM insulin, the insulin mimetic pervanadate (0.1 mM, 10 mins.), the PI 3-kinase inhibitor LY294002 (50 microM, 30 mins.), or left untreated. PM fractions were assayed for Ser473 kinase activity, and also analyzed by immunoblotting for phospho-PKB and total PKB.

PKBα = test: Subcellular fractionation of HEK 293 cells transfected with PKB constructs, anti-HA immunoblotting; format: cell-based, human; details: 0.1 mM pervanadate, 10 min, 37° C., serum-starved transfected HEK 293 cells
From the text: In order to characterize and purify the PKB Ser473 kinase, we reasoned that the kinase might be constitutively active at the plasma membrane (PM). To this end, we developed a subcellular fractionation protocol to generate fractions enriched in the PM. To determine the efficacy of the procedure, the fractionation behavior of products of two PKB constructs was examined: hemagglutinin (HA) tagged PKBα (HA-PKBα) and HA-PKBα containing a myristoylation/palmitylation signal (m/p-HA-PKBα).
HEK 293 cells transiently transfected with the PKB constructs were serum starved, stimulated or not with 0.1 mM pervanadate for 10 min at 37° C., and subcellular fractions were generated. […] Protein concentration of the subcellular fractions was determined by the Bradford method (Bio-Rad), using bovine serum albumin as standard. […]
The presence of PKB in each fraction was determined by immunoblotting with an anti-HA antibody (12CA5). In addition, the phosphorylation status of PKB in each of the fractions was assessed by immunoblotting with phospho-specific PKB antibodies after immunoprecipitation with the HA antibody. […]

PKB Ser473 kinase [3] = details: second kinase activity, taken to be the PKB Ser473 kinase; 0-100 microM tested
[4] = system: PKB Ser473 phosphorylation; details: literature: Hill et al. 2001; Alessi et al. 1996; cited from earlier work
PDK1 = biological target: T1, PDK1 (Homo sapiens, UniProt O15530); details: literature: Hill et al. 2001; cited from earlier work
T1 sequence (O15530 1-556): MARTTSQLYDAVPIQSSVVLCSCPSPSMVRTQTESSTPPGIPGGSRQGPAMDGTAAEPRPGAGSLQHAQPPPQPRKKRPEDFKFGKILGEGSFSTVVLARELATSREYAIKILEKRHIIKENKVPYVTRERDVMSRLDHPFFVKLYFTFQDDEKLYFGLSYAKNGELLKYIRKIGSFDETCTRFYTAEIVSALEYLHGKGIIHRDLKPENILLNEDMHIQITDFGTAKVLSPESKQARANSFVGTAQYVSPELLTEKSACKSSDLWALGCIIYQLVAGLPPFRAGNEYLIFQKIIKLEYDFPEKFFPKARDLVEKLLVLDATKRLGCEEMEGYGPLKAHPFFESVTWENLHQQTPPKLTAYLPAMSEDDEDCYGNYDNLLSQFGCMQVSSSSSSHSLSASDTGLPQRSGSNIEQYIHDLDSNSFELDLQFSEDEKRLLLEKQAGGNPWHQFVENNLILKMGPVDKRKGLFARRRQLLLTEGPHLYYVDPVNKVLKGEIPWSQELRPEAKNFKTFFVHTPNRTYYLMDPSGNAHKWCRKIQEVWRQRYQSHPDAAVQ

Compound	Ser473 kinase activity in plasma membrane fractions (PKB Ser473 kinase [1])	PKB phosphorylation on Thr308 and Ser473 [2]	Potency as activator of PKB phosphorylation compared with insulin [2]	Translocation of membrane-targeted m/p-HA-PKBα (PKBα)	Translocation of wild type HA-PKBα to the plasma membrane fraction (PKBα)	Staurosporine concentration up to which the kinase activity is insensitive (PKB Ser473 kinase [3])	Sensitivity of insulin-stimulated PKB Ser473 phosphorylation to the inhibitor [4]	Effect on PDK1 (PDK1)
insulin	neither stimuli increased Ser473 kinase activity above basal levels	induced PKB phosphorylation on both Thr308 and Ser473						
pervanadate	neither stimuli increased Ser473 kinase activity above basal levels	induced PKB phosphorylation on both Thr308 and Ser473	more potent activator of PKB phosphorylation than insulin	no translocation was observed	A portion of PKBα translocated to the PM fraction			
CN[C@@H]1C[C@H]2O[C@@](C)([C@@H]1OC)n1c3ccccc3c3c4c(c5c6ccccc6n2c5c31)C(=O)NC4 [staurosporine]						> 100 µM	staurosporine-insensitive; also recorded: not sensitive	inhibits PDK1
